Measurements as given in patent publication EP4241843B1, “ALCOHOL DERIVATIVES AS KV7 POTASSIUM CHANNEL OPENERS” (H. Lundbeck A/S, priority 2018, dated 2019).

Assays:
[1] = target: T1, HEK-hKv7.2/hKv7.3 cells (Homo sapiens, UniProt O43525+O43526); experiment: Thallium influx assay for potassium channel activation; type: cell-based; details: AUC as readout, normalized to a reference compound
T1 construct: P2A self-cleaving peptide between the two subunits (remnant after ribosomal skipping); expressed in transfected cells
Description: (§1) A synthesized cDNA fragment encoding human Kv7.3 and human Kv7.2 separated by a P2A sequence was inserted into the pcDNA5/FRT/TO vector using the BamHI and XhoI restriction sites. The construct was then transfected into HEK Flp-In 293 cells using Lipofectamine2000. The transfected cells were grown for 48 hours in DMEM containing 10% (v/v) FBS and 1% PenStrep and subsequently maintained under selection in DMEM containing 10% (v/v) FBS, 1 % PenStrep and 200 ug/mL Hygromycin B at 37°C in a humidified atmosphere of 5% CO2.
The thallium influx assay for potassium channel activation was performed analogously to a published procedure (C.D. Weaver, et al., J Biomol Screen 2004, 9, 671-677) using the FLIPR Potassium Assay kit (Molecular Devices). HEK-hKv7.2/hKv7.3 cells were plated onto 96-well, black-walled, clear-bottomed culture plates (Corning, Acton, MA, USA) at a density of 80,000 cells/well (100 µl/well) if the cells were assayed the following day, or 40,000 cells/well (100 µl/well) if the cells were assayed two days after seeding.
On the assay day, the medium was removed after which 50 uL/well of test compound diluted to 2x final concentration in HBSS containing 20 mM HEPES, and 50 uL/well of 2x dye load buffer were added. The cells were then incubated for 60 min at room temperature in the dark. Chloride-free stimulation buffer containing Tl^+ and K^+ at 5x final concentration (5x concentration: 5 mM in both cases) and test compound at 1x final concentration, were prepared during the incubation. The cells were then assayed in a FDSS7000EX Functional Drug Screening System (Hamamatsu). Following 60 sec of baseline fluorescence signal reading at 0.1 Hz, and 10 sec at 1 Hz, 25 uL/well of stimulation buffer were added and the fluorescence continuously measured for 50 sec at 1 Hz followed, by 4 min at 0.1 Hz. Compound effect was quantified using AUC as readout and normalized to a reference compound, which was included on each plate.

[2] = target: T2, hKv7.2/hKv7.3 cell line (HEK-hKv7.2/hKv7.3) (Homo sapiens, UniProt O43525+O43526); experiment: Automated whole cell patch-clamp functional test of the stable cell line; type: cell-based; details: stable HEK-hKv7.2/hKv7.3 cell line
T2 construct: P2A self-cleaving peptide between the two subunits (remnant after ribosomal skipping); expressed in transfected cells
Description: as §1

T1 sequence (O43525 whole entry): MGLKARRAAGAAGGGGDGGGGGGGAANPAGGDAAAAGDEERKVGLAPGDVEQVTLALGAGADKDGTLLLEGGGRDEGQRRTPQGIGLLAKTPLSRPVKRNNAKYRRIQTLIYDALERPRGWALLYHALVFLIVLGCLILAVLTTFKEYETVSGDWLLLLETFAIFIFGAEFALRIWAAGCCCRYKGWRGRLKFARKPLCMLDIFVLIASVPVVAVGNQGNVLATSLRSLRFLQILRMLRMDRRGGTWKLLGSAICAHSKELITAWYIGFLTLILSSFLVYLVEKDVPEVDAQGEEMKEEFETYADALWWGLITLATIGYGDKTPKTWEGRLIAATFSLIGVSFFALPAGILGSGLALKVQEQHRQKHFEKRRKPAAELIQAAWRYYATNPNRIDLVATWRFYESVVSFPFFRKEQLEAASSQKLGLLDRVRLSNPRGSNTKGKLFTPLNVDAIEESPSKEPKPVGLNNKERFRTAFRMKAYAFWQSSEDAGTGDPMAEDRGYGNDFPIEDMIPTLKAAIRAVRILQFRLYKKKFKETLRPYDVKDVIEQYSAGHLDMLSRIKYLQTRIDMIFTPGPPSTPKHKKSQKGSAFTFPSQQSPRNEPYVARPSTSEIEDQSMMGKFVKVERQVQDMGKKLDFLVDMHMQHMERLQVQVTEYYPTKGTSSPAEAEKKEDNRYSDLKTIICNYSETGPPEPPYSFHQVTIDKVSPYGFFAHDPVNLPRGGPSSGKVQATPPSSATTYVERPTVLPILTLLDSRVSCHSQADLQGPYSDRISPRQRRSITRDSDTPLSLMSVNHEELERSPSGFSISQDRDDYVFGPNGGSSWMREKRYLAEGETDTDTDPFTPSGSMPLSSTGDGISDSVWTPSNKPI
T1 sequence (O43526 whole entry): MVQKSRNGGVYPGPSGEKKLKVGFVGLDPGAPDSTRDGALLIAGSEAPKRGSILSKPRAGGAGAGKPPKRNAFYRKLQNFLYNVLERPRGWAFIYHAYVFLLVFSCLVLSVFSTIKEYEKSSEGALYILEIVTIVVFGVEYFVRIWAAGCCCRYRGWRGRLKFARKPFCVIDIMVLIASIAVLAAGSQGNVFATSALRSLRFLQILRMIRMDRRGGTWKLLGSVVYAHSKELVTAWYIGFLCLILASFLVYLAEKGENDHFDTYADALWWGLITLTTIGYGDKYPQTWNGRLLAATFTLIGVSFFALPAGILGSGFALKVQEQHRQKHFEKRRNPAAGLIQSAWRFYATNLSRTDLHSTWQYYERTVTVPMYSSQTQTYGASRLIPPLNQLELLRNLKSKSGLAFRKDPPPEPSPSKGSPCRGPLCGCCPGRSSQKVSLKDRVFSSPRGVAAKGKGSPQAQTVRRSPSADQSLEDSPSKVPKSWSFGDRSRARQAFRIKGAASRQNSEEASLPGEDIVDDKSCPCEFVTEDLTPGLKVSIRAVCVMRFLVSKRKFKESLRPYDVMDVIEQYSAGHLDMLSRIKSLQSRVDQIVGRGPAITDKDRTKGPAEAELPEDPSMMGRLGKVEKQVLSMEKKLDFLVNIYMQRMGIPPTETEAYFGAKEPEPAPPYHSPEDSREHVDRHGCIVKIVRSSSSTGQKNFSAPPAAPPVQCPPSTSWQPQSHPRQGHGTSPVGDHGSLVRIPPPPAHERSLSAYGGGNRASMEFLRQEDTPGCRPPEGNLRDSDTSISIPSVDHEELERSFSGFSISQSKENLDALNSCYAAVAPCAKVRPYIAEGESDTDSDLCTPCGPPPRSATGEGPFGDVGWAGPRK
T2 sequence (O43525 whole entry): as the sequence (O43525 whole entry) above
T2 sequence (O43526 whole entry): as the sequence (O43526 whole entry) above

SMILES | EC50 [1] | effect on Kv7-current [2]
C[C@H](NC(=O)C[C@H](O)C(C)(C)C)c1cccc(OC(F)(F)F)c1 [Example 1a, (S)-3-Hydroxy-4,4-dimethyl-N-((S)-1-(3-(trifluoromethoxy)phenyl)ethyl)pentanamide] | 680 nM | 
CCOC(=O)Nc1ccc(NCc2ccc(F)cc2)cc1N [Retigabine, N-(2-amino-4-(4-fluorobenzylamino)-phenyl) carbamic acid ethyl ester] |  | potentiated
C[C@H](NC(=O)C[C@@H](O)C(C)(C)C)c1cccc(OC(F)(F)F)c1 [Example 1b, (R)-3-Hydroxy-4,4-dimethyl-N-[(1S)-1-[3-(trifluoromethoxy)phenyl]ethyl]pentanamide] | 3300 nM | 
C[C@H](NC(=O)CC(O)C1CC(F)(F)C1)c1cccc(OC(F)(F)F)c1 (stereo in doubt) [Example 11a, 3-(3,3-Difluorocyclobutyl)-3-hydroxy-N-((S)-1-(3-(trifluoromethoxy)phenyl)ethyl)propanamide] | 1500 nM | 
C[C@H](NC(=O)CC1(O)CC(F)(F)C1)c1cccc(OC(F)(F)F)c1 [Example 5, (S)-2-(3,3-difluoro-1-hydroxycyclobutyl)-N-(1-(3-(trifluoromethoxy)phenyl)ethyl)acetamide] | 1800 nM | 
O=C1c2ccccc2C(Cc2ccncc2)(Cc2ccncc2)c2ccccc21 [XE991] |  | sensitive
C[C@H](NC(=O)CC1(O)CCC1)c1cccc(OCC(F)(F)F)c1 [Example 6, (S)-2-(1-Hydroxycyclobutyl)-N-(1-(3-(2,2,2-trifluoroethoxy)phenyl)ethyl) acetamide] | 3000 nM | 
COC[C@H](NC(=O)CC1(O)CCCC1)c1cccc(OC(F)(F)F)c1 [Example 17, (R)-2-(1-Hydroxycyclopentyl)-N-(2-methoxy-1-(3-(trifluoromethoxy)phenyl)ethyl) acetamide] | 2500 nM | 
C[C@H](NC(=O)CC(O)(C(F)(F)F)C(F)(F)F)c1cccc(OC(F)(F)F)c1 [Example 9, 4,4,4-Trifluoro-3-hydroxy-N-[(1S)-1-[3-(trifluoro-methoxy)phenyl]ethyl]-3-(trifluoromethyl)butanamide] | 560 nM | 
